Molecular target: T1, GHS-R1a receptor (ghrelin receptor) (Homo sapiens, UniProt Q92847)
T1 construct: gene GHSR; human GHS-R1a with C-terminal EGFP tag, stably expressed in Hek293a cells
Assay: calcium mobilisation in Hek-GHS-R1a-EGFP cells; no response in wild-type Hek or 5-HT2C cells; reduced by JMV2959
Assay type: cell-based

T1 sequence (Q92847 whole entry): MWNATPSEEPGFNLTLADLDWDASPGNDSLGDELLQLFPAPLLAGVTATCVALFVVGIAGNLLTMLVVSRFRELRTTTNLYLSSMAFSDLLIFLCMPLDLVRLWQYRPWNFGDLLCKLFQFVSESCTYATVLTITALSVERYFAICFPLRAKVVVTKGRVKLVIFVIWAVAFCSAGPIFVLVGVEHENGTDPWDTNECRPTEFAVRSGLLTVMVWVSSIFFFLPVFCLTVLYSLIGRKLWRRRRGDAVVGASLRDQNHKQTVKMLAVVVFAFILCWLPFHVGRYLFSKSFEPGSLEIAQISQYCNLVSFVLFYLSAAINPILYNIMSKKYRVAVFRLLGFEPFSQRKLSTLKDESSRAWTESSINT

EC50: 3.1 µM
SMILES: COc1cc(C)n(C)c(=O)c1C(F)(F)F [compound 8, 4-Methoxy-1,6-dimethyl-3-(trifluoromethyl)pyridin-2(1H)-one]

— PMC5098229, “A Novel Non-Peptidic Agonist of the Ghrelin Receptor with Orexigenic Activity In vivo” (Scientific Reports, 2016)
